How the values were obtained:
MDA-MB-231 = assay: cells; settings: Homo sapiens, MDA-MB-231, 48 h
Description: Cytotoxicity against Homo sapiens (human) MDA-MB-231 cells after 48 hr by MTT assay

HepG2 = assay: cells; settings: Homo sapiens, HepG2, 48 h
Description: Cytotoxicity against Homo sapiens (human) HepG2 cells after 48 hr by MTT assay

K562 = assay: cells; settings: Homo sapiens, K562, 48 h
Description: Cytotoxicity against Homo sapiens (human) K562 cells after 48 hr by MTT assay

[1] = octanol/water
Description: Lipophilicity, log P of the compound

physchem = settings: octanol/water
Description: Lipophilicity, log P of the compound

| SMILES | IC50 (MDA-MB-231) [nM] | IC50 (HepG2) [nM] | IC50 (K562) [nM] | logP [1] | logP (physchem) |
| --- | --- | --- | --- | --- | --- |
| O=P1(N(CCCl)CCCl)NCCCO1 (stereo not drawn) [CYCLOPHOSPHAMIDE ANHYDROUS] | 90 | 240 | 150 | – | – |
| Cc1ccc(OP2(=O)NCC(C)(C)CN2)cc1 | 230 | 2200 | 1440 | 0.12 | – |
| CC1(C)CNP(=O)(Nc2ccccc2)NC1 | 2040 | 3170 | 3110 | – | -0.03 |
| Cc1ccc(OP2(=O)NCCCO2)cc1 (stereo not drawn) | 870 | 590 | 710 | – | 0.76 |
| O=P1(Nc2ccccc2)NCCCO1 (stereo not drawn) | 830 | 600 | 550 | – | 0.29 |
| NS(=O)(=O)c1ccc(NP2(=O)NCCCN2)cc1 | 110 | 130 | 190 | – | 1.56 |
| O=[N+]([O-])c1ccc(NP2(=O)NCCCO2)cc1 (stereo not drawn) | 90 | 150 | 890 | – | -0.53 |
| NS(=O)(=O)c1ccc(NP2(=O)NCCCO2)cc1 (stereo not drawn) | 170 | 140 | 150 | – | 1.88 |
| Nc1ccc(S(N)(=O)=O)cc1 [SULFANILAMIDE] | 90 | 80 | 200 | – | – |
| COc1ccc(NP2(=O)NCCCO2)cc1 (stereo not drawn) | 230 | 60 | 200 | – | -0.71 |
